Here are results for 15 compounds from ChEMBL document CHEMBL3232891, “Medicinal attributes of pyrazolo[3,4-d]pyrimidines: a review” (Bioorg Med Chem, 2013).

In brackets after ≈: the same amount, converted by molar mass.

Experiment [1] has as its system Daoy. The experiment can be described thus: Cytotoxicity against human DaOY cells after 48 hrs by MTS assay. The format is functional, cell-based.
Experiment [2] relates to Staphylococcus aureus. Put plainly: Antibacterial activity against Staphylococcus aureus. It counts as functional.
The subject of experiment [3] is Enterococcus raffinosus. Put plainly: Antibacterial activity against Enterococcus raffinosus. It counts as functional.
The nature of experiment [4]: Growth inhibition of human NPC-TW01 cells. It counts as functional.
In experiment [5] the test system is NCI-H226. The experiment can be described thus: Growth inhibition of human NCI-H226 cells. It counts as functional.
Experiment [6] concerns Jurkat. The experiment can be described thus: Growth inhibition of human Jurkat cells. It counts as functional.
Experiment [7] has as its system Mycobacterium tuberculosis. Put plainly: Antitubercular activity against Mycobacterium tuberculosis assessed as growth inhibition. It counts as functional.
Experiment [8] in a line: Cytotoxicity against human Saos2 cells assessed as inhibition of cell viability at 25 uM after 48 hrs by MTT assay relative to control. Particulars: SAOS-2, 48 h. The format is functional. (Formazan colour is commonly taken as a measure of viable cells.)
Experiment [9] in a line: Cytotoxicity against human Saos2 cells after 48 hrs by MTT assay. It counts as functional, cell-based. The conditions noted are these: SAOS-2, 48 h.
In experiment [10] the test system is HL-60. Put plainly: Cytotoxicity against human HL60 cells by MTT assay. It counts as functional, cell-based.

In general, IC50 refers to the concentration at which inhibition is half-maximal. For the compound `Fc1cccc(CNc2ncnc3c2cnn3CC(Cl)c2ccc(Br)cc2)c1` (configuration not stated), the IC50 in experiment [1] was 3.5 µM.

The MIC is the smallest concentration in the dilution series that meets the test's criterion for growth inhibition. Turning to `Nc1n[nH]c2nc(-c3ccccc3)nc(-c3ccc(Br)cc3)c12`, the values for the MIC in experiment [2] and in experiment [3] were 3.8 µM (≈ 1.39 µg/mL) and 12.3 µM (≈ 4.5 µg/mL), respectively.

One may read the GI50 as the concentration at which growth is held to half of that of the control. For the compound `Clc1ccc(-c2nn(-c3ccccc3)c3ncncc23)cc1`, the results for the GI50 in [4], in experiment [5] and in [6] were 23 µM, 18 µM and 36 µM, respectively.

For `Cc1ccc(-c2nn(-c3ccc4ccccc4n3)c3ncncc23)cc1`, the GI50 in [4] turned out to be 30 µM; in [5] it was 29 µM; in experiment [6] it was 54 µM.

For the compound `Clc1ccc(-c2nn(-c3ccc4ccccc4n3)c3ncncc23)cc1`, the GI50 in [4] turned out to be 35 µM; in experiment [5], 39 µM; in experiment [6], 69 µM.

Turning to `COc1ccc(-c2nn(-c3ccc4ccccc4n3)c3ncncc23)cc1`, the GI50 in [4] is 36 µM; in experiment [5], 37 µM; in experiment [6], over 100 µM.

For the compound `COc1ccc(-c2nc(-c3ccccc3)nc3[nH]nc(N)c23)cc1`, the MIC came out at 4.2 µM (≈ 1.33 µg/mL) in [2] and 14.2 µM (≈ 4.51 µg/mL) in experiment [3].

As for `Nc1n[nH]c2nc(-c3ccccc3)nc(-c3ccc(Cl)cc3)c12`, the MIC in experiment [2] is 190 µM (≈ 61.2 µg/mL); in [3], over 300 µM.

In the case of `Nc1ccc(-c2nc(-c3ccccc3)nc3[nH]nc(N)c23)cc1`, the MIC in [2] was 34.5 µM (≈ 10.4 µg/mL); in experiment [3] it was 82.8 µM (≈ 25 µg/mL).

Take `C#CCn1ncc2c(SCc3ccccc3)ncnc21`: the “inhibition (INH)” value in experiment [7] is on record as over 90%. The MIC in experiment [7] (Mycobacterium tuberculosis) is 12.5 µg/mL (≈ 44.6 µM).

A word on the inhibition: it is the percentage by which the read-out fell short of the control. As to `CSc1nc(Nc2cccc(Cl)c2)c2cnn(CC(Cl)c3ccccc3)c2n1` (configuration not stated), the inhibition at 25 µM in experiment [8] was determined as 93.3%. This compound showed an IC50 in [9] of 11.6 µM.

In turn, `Fc1ccc(CNc2ncnc3c2cnn3CC(Cl)c2ccc(Cl)cc2)cc1` (configuration not stated) registered an IC50 in experiment [1] of 1.72 µM.

Take `CC(C)(C)n1nc(-c2ccc(Cl)cc2)c2c(N)ncnc21`: the inhibition at 25 µM in experiment [8] worked out at 85.3%. The compound also displayed an IC50 in [9] of 8.07 µM.

On to `CCCCNc1ncnc2c1cnn2CC(Cl)c1ccccc1` (configuration not stated), for which the IC50 in experiment [1] is 6.24 µM; in experiment [9], 14.6 µM. Also, the inhibition at 25 µM in experiment [8] was 71.1%.

The compound `COc1cccc2c1C(=O)c1c(O)c3c(c(O)c1C2=O)C[C@@](O)(C(=O)CO)C[C@@H]3O[C@H]1C[C@H](N)[C@H](O)[C@H](C)O1` [DOXORUBICIN] had a half-maximal inhibitory concentration (IC50) in experiment [10] of 0.55 µM. This counts as sub-micromolar.
